Experimental data as given in publication PMC10692721, “Drug discovery for heart failure targeting myosin-binding protein C” (The Journal of Biological Chemistry, 2023).
Structures can show the parent of a compound that is named as a salt.

Columns and labels:
[1] = system: TMR-cC0-C2 (C0-C2 fragment of human cMyBP-C); assay: FLT-TMR concentration-response assay (FLT of TMR on cC0-C2, no actin); format: binding; details: concentration-response, no actin
Summary of the method: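 Hits tested at eight concentrations (0.5–100 μM) and read on a high-throughput fluorescence lifetime plate reader. Hill fits applied only under certain conditions.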

[2] = system: TMR-fC1-C2 (C1-C2 of fast skeletal MyBP-C); assay: FLT-TMR concentration-response assay, fC1-C2; format: binding; details: concentration-response, no actin
Description: (§1) Compounds identified as initial hits were further examined to determine the concentration–response curves for seven conditions ([1]): FMAL-actin alone identified actin-binding compounds that alter the FLT of FMAL-actin ([2]).
(§2) Fluorescence lifetime (FLT) measurements were acquired using a high-throughput FLT plate reader (Fluorescence Innovations, Inc) ([14], [27]), provided by Photonic Pharma LLC. […] The observed waveforms were analyzed as described previously ([15], [28]).
(§3) The primary hits were dissolved in DMSO to make a 10 mM stock solution, which was serially diluted in 96-well mother plates. Hits were screened at eight concentrations (0.5–100 μM). […] Compounds (1 μl) were transferred from the mother plates into 384-well plates using a Mosquito HV liquid handler (TTP Labtech Ltd, Hertfordshire, UK). The same procedure of dispensing as for the pilot screening was applied in the concentration-response assays. Concentration dependence of the FLT-FRET (E/EDMSO) or FLT-TMR (Δτ) change data was fit to a Hill equation only under certain conditions to help guide the eye (Fig. 4).

[3] = system: FMAL-actin/TMR-cC0-C2 interaction; assay: FLT-FRET concentration-response assay, FMAL-actin plus TMR-cC0-C2; format: binding, human; details: for specificity of FLT-FRET effect for unphosphorylated over phosphorylated cC0-C2: effect on cC0-C2 compared to phosphorylated cC0-C2 (Tables 1 and 2); for effect on FLT-FRET / binding between FMAL-actin and TMR-cC0-C2 (in words): unphosphorylated cC0-C2
Description: as §1, §2, §3

[4] = system: FMAL-actin/PKA-phosphorylated TMR-cC0-C2 interaction; assay: FLT-FRET concentration-response assay, FMAL-actin plus PKA-phosphorylated TMR-cC0-C2; format: binding, human; details: phosphorylated cC0-C2
Description: as §1, §2, §3

[5] = system: FMAL-actin/TMR-fC1-C2 interaction; assay: FLT-FRET concentration-response assay, FMAL-actin plus TMR-fC1-C2; format: binding
Description: as §1, §2, §3

[6] = system: FMAL-actin plus TMR-cC0-C2; assay: Selleck library HTS, 473 nm excitation (FLT of FMAL-actin with TMR-cC0-C2, FLT-FRET); format: binding, human; details: for 473-nm Δτ, Repeat 1 / 473-nm Δτ, Repeat 2: initial screen, 30 μM compound; for 473-nm z-score (based on avg Δτ): robust z-score, hit threshold ±4, 30 μM compound
Summary of the method: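 Donor fluorescence lifetime was then recorded. Waveforms were fit to a single exponential, and ΔFLT was obtained after a moving-median plate-gradient correction (half-row window), rescaled by the median DMSO lifetime.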

TMR-cC0-C2 = assay: Selleck library HTS, 532 nm excitation (FLT of TMR-cC0-C2 in presence of FMAL-actin); format: binding, human; details: for 532-nm Δτ, Repeat 1 / 532-nm Δτ, Repeat 2: initial screen, 30 μM compound; for 532-nm z-score (based on avg Δτ): robust z-score, hit threshold ±4, 30 μM compound
[7] = system: rabbit fast skeletal (psoas) myofibrils; assay: Skeletal myofibril ATPase assay; format: biochemical; details: 50 μM compound, pCa 8 to pCa 4
Description: Rabbit psoas and bovine cardiac myofibrils were prepared as described in our previous study ([17]). An enzyme-coupled, NADH-linked ATPase assay was used to measure skeletal and cardiac myofibril ATPase activity in 96-well microplates at 23 °C. Ionic strength was maintained below 0.2 M, so myofilaments remained insoluble and stable ([32]). To achieve optimal enzymatic activities, buffers for skeletal and cardiac myofibrils differed slightly ([33], [34]): skeletal in 50 mM MOPS, 100 mM KCl, 5 mM MgCl2, 1 mM EGTA, pH 7.0; cardiac in 20 mM MOPS, 35 mM NaCl, 5 mM MgCl2, 1 mM EGTA, pH 7.0. Each well in the microplate contained an assay mix of 0.84 mM phosphoenolpyruvate, 0.17 mM NADH, 10 U/vol pyruvate kinase, 20 U/vol lactate dehydrogenase. The concentration of free Ca^2+ was controlled by EGTA buffering ([35]). Myofibrils were dispensed in microplates with a multichannel pipette and were incubated with assay mix plus compound of interest for 20 min at 23 °C. The concentration of myofibrils used was 0.01 mg/ml for skeletal and 0.05 mg/ml for cardiac myofibrils. The assay was started upon the addition of ATP, at a final concentration of 2.1 mM (total volume to 200 μl), and absorbance was recorded at 340 nm in a SpectraMax Plus microplate spectrophotometer from Molecular Devices. The steady-state myofibrillar ATPase rate was measured from NADH oxidation, measured as the rate of decrease in absorption at 340 nm for 30 min, with absorption data collected every 15 s. All data and statistical analysis of steady-state kinetics were conducted with the OriginPro program. The results were fitted with the Hill equation:(6) V=V0+(Vmax/1+10^−n∗^(pCa50−pCa)) where V is the ATPase rate and n is the Hill coefficient.
ATPase activity is reported on the μmol ATP/mg protein/min scale. Average data are presented as mean ± SD. Sample means are derived from three different myofibril preps (N = 3), each done in duplicate (n = 6).
The effects of compounds on ATPase activity of myofibrils were determined in the presence of 50 μM compound, across a 12-point pCa range from 4.0 (activation) to 8.0 (relaxation). The calcium sensitivity (pCa50) was determined by fitting the curves to the Hill equation. In all experiments, a 1% DMSO-only control was included. The normalized ATPase activity of the selected compounds can be found in Figure 6.

Structure (SMILES)	effect on FLT of TMR-cC0-C2 (in words) [1]	effect on FLT of TMR-fC1-C2 (in words) [2]	specificity of FLT-FRET effect for unphosphorylated over phosphorylated cC0-C2 [3]	effect on FLT-FRET / binding between FMAL-actin and TMR-cC0-C2 (in words) [3]	effect on FLT-FRET / binding between FMAL-actin and PKA-phosphorylated TMR-cC0-C2 (in words) [4]	effect on FLT-FRET / binding between FMAL-actin and TMR-fC1-C2 (in words) [5]	473-nm Δτ, Repeat 1 [6]	473-nm Δτ, Repeat 2 [6]	473-nm z-score (based on avg Δτ) [6]	532-nm Δτ, Repeat 1 (TMR-cC0-C2)	532-nm Δτ, Repeat 2 (TMR-cC0-C2)	532-nm z-score (based on avg Δτ) (TMR-cC0-C2)	effects on actin binding (FRET) ([3]; range over cC0-C2, phosphorylated cC0-C2 and fC1-C2)	reduction in actin binding (fC1-C2-actin FRET) ([5]; skeletal MyBP-C)	effect on skeletal MF ATPase activity (in words) [7]
CCC(C)(Oc1ccc(C2(c3ccc(OC(C)(CC)C(=O)O)cc3)CCCCC2)cc1)C(=O)O (stereo not drawn) [Clinofibrate]	do not affect	do not affect	stronger reduction of FRET with non-phosphorylated than phosphorylated	decreased	decreased	decreased	0.090 ns	0.075 ns	4.65	0.006 ns	0.016 ns	0.70			
CCN(C(=O)c1c(O)c2c(Cl)cccc2n(C)c1=O)c1ccccc1 [Laquinimod]	do not affect	do not affect	stronger reduction of FRET with non-phosphorylated than phosphorylated	decreased	decreased	decreased	0.109 ns	0.071 ns	5.08	-0.017 ns	-0.016 ns	-0.99			
CO/N=C(\C(=O)N[C@@H]1C(=O)N2C(C(=O)O)=C(C[N+]3(C)CCCC3)CS[C@H]12)c1csc(N)n1 [Cefepime dihydrochloride monohydrate]							0.127 ns	0.102 ns	6.43	0.006 ns	-0.096 ns	-2.70	13–35%	13%	affected ATPase
COC(=O)N[C@H](C(=O)N1CCC[C@H]1c1nc(-c2ccc3c(c2)O[C@@H](c2ccccc2)n2c-3cc3cc(-c4c[nH]c([C@@H]5CCCN5C(=O)[C@@H](NC(=O)OC)C(C)C)n4)ccc32)c[nH]1)C(C)C [Elbasvir]	do not affect	do not affect	5 fold	decreased	decreased	decreased	0.142 ns	0.080 ns	6.24	-0.002 ns	0.011 ns	0.31			
